Results reported in ChEMBL document CHEMBL1201862, “PubChem BioAssay data set” (2004).
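Where inhibition never reached the appropriate level, the endpoint shown equals the highest concentration tested. Otherwise, values were interpolated linearly from a five-concentration, 48-hour dose response in 96-well plates. At the GI50, growth is halved.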 The source made the active and inactive calls. Rule as the data show it: active = GI50 up to about 1.1 µM and inactive = higher.

What was measured:
Experiment in all cases: inhibition of tumour cell growth, NCI panel, 48 h
SNB-75 = tested on: SNB-75
SF-295 = tested on: SF-295
NCI-H522 = tested on: NCI-H522
CCRF-CEM = tested on: CCRF-CEM
IGROV-1 = tested on: IGROV-1
SNB-78 = tested on: SNB-78
XF498 = tested on: XF498
A549 = tested on: A549
HT-29 = tested on: HT-29
TK-10 = tested on: TK-10
RXF 393 = tested on: RXF 393
SF-539 = tested on: SF-539
Malme-3M = tested on: Malme-3M
HOP-92 = tested on: HOP-92
K562 = tested on: K562
SN12C = tested on: SN12C
NCI-H460 = tested on: NCI-H460
HOP-62 = tested on: HOP-62
EKVX = tested on: EKVX
OVCAR-8 = tested on: OVCAR-8
DMS-114 = tested on: DMS-114
786-0 = tested on: 786-0
CAKI-1 = tested on: CAKI-1
SR = tested on: SR
SNB-19 = tested on: SNB-19
NCI-H226 = tested on: NCI-H226
SF-268 = tested on: SF-268
M19-MEL = tested on: M19-MEL
OVCAR-5 = tested on: OVCAR-5
OVCAR-3 = tested on: OVCAR-3
SK-MEL-5 = tested on: SK-MEL-5
DMS-273 = tested on: DMS-273
SK-MEL-2 = tested on: SK-MEL-2
COLO 205 = tested on: COLO 205
KM12 = tested on: KM12
ACHN = tested on: ACHN
MOLT-4 = tested on: MOLT-4
LOX IMVI = tested on: LOX IMVI
SK-OV-3 = tested on: SK-OV-3
DLD-1 = tested on: DLD-1
HCC 2998 = tested on: HCC 2998
U-251 = tested on: U-251
OVCAR-4 = tested on: OVCAR-4
LXFL 529 = tested on: LXFL 529
HCT-116 = tested on: HCT-116
SK-MEL-28 = tested on: SK-MEL-28
SW-620 = tested on: SW-620
NCI-H23 = tested on: NCI-H23
HCT-15 = tested on: HCT-15
UACC-62 = tested on: UACC-62
UO-31 = tested on: UO-31
M14 = tested on: M14
A498 = tested on: A498
RPMI-8226 = tested on: RPMI-8226
UACC-257 = tested on: UACC-257
KM-20L2 = tested on: KM-20L2
HL-60 = tested on: HL-60

`O=C(Nc1ccccc1-c1n[nH]c(S)nc1=O)C(F)(F)F` was tested, and the GI50 (SNB-75) was > 100 µM (inactive), the GI50 (SF-295) was > 100 µM (inactive) and the GI50 (NCI-H522) was 64.3 µM (inactive). The GI50 (CCRF-CEM) was > 100 µM (inactive), the GI50 (IGROV-1) was > 100 µM (inactive) and the GI50 (SNB-78) was > 100 µM (inactive). For the same compound, the GI50 (XF498) was > 100 µM (inactive), the GI50 (A549) was > 100 µM (inactive) and the GI50 (HT-29) was > 100 µM (inactive). For the same compound, the GI50 (TK-10) was > 100 µM (inactive), the GI50 (RXF 393) was > 100 µM (inactive) and the GI50 (SF-539) was > 100 µM (inactive). The GI50 (Malme-3M) was > 100 µM (inactive), the GI50 (HOP-92) was > 100 µM (inactive) and the GI50 (K562) was > 100 µM (inactive). For the same compound, the GI50 (SN12C) was > 100 µM (inactive), the GI50 (NCI-H460) was > 100 µM (inactive) and the GI50 (HOP-62) was > 100 µM (inactive). The GI50 (EKVX) was > 100 µM (inactive), the GI50 (OVCAR-8) was > 100 µM (inactive) and the GI50 (DMS-114) was > 100 µM (inactive). For the same compound, the GI50 (786-0) was > 100 µM (inactive), the GI50 (CAKI-1) was > 100 µM (inactive) and the GI50 (SR) was > 100 µM (inactive). For the same compound, the GI50 (SNB-19) was > 100 µM (inactive), the GI50 (NCI-H226) was > 100 µM (inactive) and the GI50 (SF-268) was > 100 µM (inactive). The GI50 (M19-MEL) was > 100 µM (inactive), the GI50 (OVCAR-5) was > 100 µM (inactive) and the GI50 (OVCAR-3) was > 100 µM (inactive). The GI50 (SK-MEL-5) was > 100 µM (inactive), the GI50 (DMS-273) was > 100 µM (inactive) and the GI50 (SK-MEL-2) was > 100 µM (inactive). For the same compound, the GI50 (COLO 205) was > 100 µM (inactive), the GI50 (KM12) was > 100 µM (inactive) and the GI50 (ACHN) was > 100 µM (inactive). The GI50 (MOLT-4) was > 100 µM (inactive), the GI50 (LOX IMVI) was > 100 µM (inactive) and the GI50 (SK-OV-3) was > 100 µM (inactive). For the same compound, the GI50 (DLD-1) was > 100 µM (inactive), the GI50 (HCC 2998) was > 100 µM (inactive) and the GI50 (U-251) was > 100 µM (inactive). The GI50 (OVCAR-4) was > 100 µM (inactive), the GI50 (LXFL 529) was > 100 µM (inactive) and the GI50 (HCT-116) was > 100 µM (inactive). For the same compound, the GI50 (SK-MEL-28) was > 100 µM (inactive), the GI50 (SW-620) was > 100 µM (inactive) and the GI50 (NCI-H23) was > 100 µM (inactive). For the same compound, the GI50 (HCT-15) was > 100 µM, the GI50 (UACC-62) was > 100 µM (inactive) and the GI50 (UO-31) was > 100 µM (inactive). The GI50 (M14) was > 100 µM (inactive).

For `Cc1cc(C)nc(Nc2nc3cc([N+](=O)[O-])ccc3[nH]2)n1`, the GI50 (A498) was > 100 µM (inactive), the GI50 (SF-295) was > 100 µM (inactive) and the GI50 (NCI-H522) was > 100 µM (inactive). For the same compound, the GI50 (CCRF-CEM) was > 100 µM (inactive), the GI50 (IGROV-1) was > 100 µM (inactive) and the GI50 (SNB-78) was > 100 µM (inactive). The GI50 (RPMI-8226) was > 100 µM (inactive), the GI50 (XF498) was > 100 µM (inactive) and the GI50 (A549) was > 100 µM (inactive). For the same compound, the GI50 (HT-29) was > 100 µM (inactive), the GI50 (TK-10) was > 100 µM (inactive) and the GI50 (UACC-257) was > 100 µM (inactive). For the same compound, the GI50 (SF-539) was > 100 µM (inactive), the GI50 (Malme-3M) was > 100 µM (inactive) and the GI50 (HOP-92) was 31.1 µM (inactive). For the same compound, the GI50 (K562) was > 100 µM (inactive), the GI50 (SN12C) was > 100 µM (inactive) and the GI50 (NCI-H460) was > 100 µM (inactive). The GI50 (KM-20L2) was > 100 µM (inactive), the GI50 (HOP-62) was > 100 µM (inactive) and the GI50 (EKVX) was > 100 µM (inactive). The GI50 (OVCAR-8) was > 100 µM (inactive), the GI50 (DMS-114) was > 100 µM (inactive) and the GI50 (786-0) was > 100 µM (inactive). The GI50 (CAKI-1) was > 100 µM (inactive), the GI50 (SR) was > 100 µM (inactive) and the GI50 (SNB-19) was > 100 µM (inactive). The GI50 (NCI-H226) was > 100 µM (inactive), the GI50 (SF-268) was > 100 µM (inactive) and the GI50 (OVCAR-5) was > 100 µM (inactive). For the same compound, the GI50 (OVCAR-3) was > 100 µM (inactive), the GI50 (SK-MEL-5) was > 100 µM (inactive) and the GI50 (DMS-273) was > 100 µM (inactive). For the same compound, the GI50 (SK-MEL-2) was > 100 µM (inactive), the GI50 (COLO 205) was > 100 µM (inactive) and the GI50 (KM12) was > 100 µM (inactive). The GI50 (ACHN) was > 100 µM (inactive), the GI50 (MOLT-4) was > 100 µM (inactive) and the GI50 (LOX IMVI) was > 100 µM (inactive). The GI50 (DLD-1) was > 100 µM (inactive), the GI50 (HCC 2998) was > 100 µM (inactive) and the GI50 (U-251) was > 100 µM (inactive). For the same compound, the GI50 (OVCAR-4) was > 100 µM (inactive), the GI50 (LXFL 529) was > 100 µM (inactive) and the GI50 (HCT-116) was > 100 µM (inactive). The GI50 (SK-MEL-28) was > 100 µM (inactive), the GI50 (SW-620) was > 100 µM (inactive) and the GI50 (NCI-H23) was > 100 µM (inactive). The GI50 (HCT-15) was > 100 µM, the GI50 (HL-60) was > 100 µM (inactive) and the GI50 (UACC-62) was > 100 µM (inactive). For the same compound, the GI50 (UO-31) was > 100 µM (inactive) and the GI50 (M14) was > 100 µM (inactive).
